Results on eleven molecules are retold here after patent publication US20090232838A1, “Ligands of melanocortin receptors” (priority 2005, published 2009).

pEC50, pKi: −log10 of the molar value. Where two headings read alike, the source gives them in different places. Where a SMILES comes first, the peptide text is derived from it. Bridges are numbered along the chain shown (N, C = ends). [ ]: non-standard residue; d: D form. 1Nal = N[C@@H](Cc1cccc2ccccc12)C(=O)O; 2Nal = N[C@@H](Cc1ccc2ccccc2c1)C(=O)O; d2Nal = N[C@H](Cc1ccc2ccccc2c1)C(=O)O; Bta = N[C@@H](Cc1csc2ccccc12)C(=O)O

One assay has as its target T1, hMC5-R (Homo sapiens, UniProt P33032).
T1 construct: expressed in transfected cells; host or cells: CHO-K1
Briefly: cyclic AMP bioassay, hMC5-R. Format: cell-based.

The target in the next assay is T2, hMC3-R (Homo sapiens, UniProt P41968).
T2 construct: expressed in transfected cells; host or cells: CHO-K1
Briefly: cyclic AMP bioassay, hMC3-R. Format: cell-based.

The target of the next assay is T3, hMC1-R (Homo sapiens, UniProt Q01726).
T3 construct: expressed in transfected cells; host or cells: CHO-K1
Briefly: cyclic AMP bioassay, hMC1-R. The class given is cell-based.

In assay [1] the target is T4, hMC4-R (Homo sapiens, UniProt P32245).
T4 construct: expressed in transfected cells; host or cells: CHO-K1
Briefly: cyclic AMP bioassay, hMC4-R. The class given is cell-based.

Assay [2] concerns the target T4, hMC4-R. Briefly: Radioligand binding assay, hMC4-R. The following applies: read-out: Ki hMC4-R. As for the experimental part: Cellular membranes used for the in vitro receptor binding assays were obtained from transgenic CHO-K1 cells stably expressing hMC-R receptor subtypes 1, 3, 4 or 5. […] The pellets were resuspended in the same buffer and centrifuged at 50,000 g for 10 minutes at approximately 4° C. The washed pellets containing the cellular membranes were stored at approximately −80° C.
Filters were washed three times with 50 mM Tris-HCl at p-H 7.4 at a temperature of approximately 0-4° C. and then assayed for radioactivity using a Packard Topcount® scintillation counter. Binding data were analyzed by computer-assisted non-linear regression analysis (XL fit; IDBS).

Setting [3] is: Table 3A, cAMP in CHO-K1 cells, agonist, read-out: EC50 hMC5-R.
Setting [4] is: Table 3A, cAMP in CHO-K1 cells, antagonist potency by Schild analysis, read-out: Kb hMC3-R.
Setting [5] is: Table 3A, cAMP in CHO-K1 cells, agonist, read-out: EC50 hMC1-R.
[6] abbreviates: Table 3A, cAMP in CHO-K1 cells, antagonist potency by Schild analysis, read-out: Kb hMC4-R.

T4 sequence (P32245 whole entry): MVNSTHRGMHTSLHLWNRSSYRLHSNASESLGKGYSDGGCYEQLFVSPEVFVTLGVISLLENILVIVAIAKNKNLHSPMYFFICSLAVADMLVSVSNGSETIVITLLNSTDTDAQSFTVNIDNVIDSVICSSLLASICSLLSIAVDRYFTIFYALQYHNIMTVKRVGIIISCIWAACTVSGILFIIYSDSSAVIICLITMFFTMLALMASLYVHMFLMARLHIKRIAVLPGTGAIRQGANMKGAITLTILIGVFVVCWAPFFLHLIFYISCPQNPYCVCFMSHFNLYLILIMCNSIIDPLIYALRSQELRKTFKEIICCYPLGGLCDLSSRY
T3 sequence (Q01726 whole entry): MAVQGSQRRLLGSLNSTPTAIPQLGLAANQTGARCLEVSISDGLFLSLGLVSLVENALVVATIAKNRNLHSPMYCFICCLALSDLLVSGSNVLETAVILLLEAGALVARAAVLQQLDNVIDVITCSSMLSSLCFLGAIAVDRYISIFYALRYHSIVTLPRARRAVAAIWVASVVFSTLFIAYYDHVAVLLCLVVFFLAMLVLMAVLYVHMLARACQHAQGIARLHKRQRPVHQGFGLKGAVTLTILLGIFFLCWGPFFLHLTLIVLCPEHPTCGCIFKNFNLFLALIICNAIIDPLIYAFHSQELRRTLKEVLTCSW
T2 sequence (P41968 whole entry): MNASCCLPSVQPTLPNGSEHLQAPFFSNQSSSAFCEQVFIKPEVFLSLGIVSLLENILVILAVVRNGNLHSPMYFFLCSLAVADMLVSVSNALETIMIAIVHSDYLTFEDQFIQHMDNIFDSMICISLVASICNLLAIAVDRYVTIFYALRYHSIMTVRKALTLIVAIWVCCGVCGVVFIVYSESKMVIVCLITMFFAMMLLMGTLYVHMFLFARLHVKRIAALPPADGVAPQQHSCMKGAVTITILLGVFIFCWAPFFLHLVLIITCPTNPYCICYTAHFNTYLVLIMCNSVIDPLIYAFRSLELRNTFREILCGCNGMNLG
T1 sequence (P33032 whole entry): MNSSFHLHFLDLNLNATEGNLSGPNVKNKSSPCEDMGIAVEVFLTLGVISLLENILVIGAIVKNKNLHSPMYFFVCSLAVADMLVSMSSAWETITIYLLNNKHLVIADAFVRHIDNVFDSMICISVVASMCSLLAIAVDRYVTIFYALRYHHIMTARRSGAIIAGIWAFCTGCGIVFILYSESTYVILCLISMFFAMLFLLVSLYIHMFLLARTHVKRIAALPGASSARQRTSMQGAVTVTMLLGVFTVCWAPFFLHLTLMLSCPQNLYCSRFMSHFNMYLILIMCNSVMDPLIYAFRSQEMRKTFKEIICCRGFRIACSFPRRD
Description for hMC1-R: Intracellular cyclic AMP (cAMP) levels were determined by an electrochemiluminescence (ECL) assay (Meso Scale Discovery®, Gaithersburg, Md.; referred to hereinafter as MSD). […] Transgenic CHO-K1 cells stably expressing hMC receptor subtypes 1, 3, 4 or 5 were dispensed at a density of approximately 7,000 cells/well in 384-well Multi-Arrays plates (MSD) containing integrated carbon electrodes and coated with anti-CAMP antibody. Increasing concentrations of the test compounds were added and the cells were incubated for approximately 40 minutes at approximately 37° C. […] At the end of the second incubation period read buffer (Tris-buffered solution containing an ECL co-reactant and Triton X-100 at ph 7.8) was added and the cAMP levels in the cell lysates were immediately determined by ECL detection with a Sector Imager 6000 Reader® (MSD). Data were analyzed using a computer-assisted non-linear regression analysis (XL fit; IDBS) and reported as either an EC50 value or a Kb value.
The Kb value reflects the potency of an antagonist and is determined by Schild analysis. In brief, concentration-response curves of an agonist are carried out in the presence of increasing concentrations of an antagonist. […] It is calculated by extrapolating the line on a Schild plot to zero on the y-axis.

As to `CCCC[C@H](NC(C)=O)C(=O)N[C@H]1CC(=O)NCCCC[C@@H](C(=O)NCCOCCOCC(=O)NCCOCCOCC(=O)N[C@@H](Cc2ccc(O)cc2)C(=O)NCC(=O)N[C@@H](CCCNC(=N)N)C(=O)N[C@@H](CCCCN)C(=O)N[C@@H](CCCCN)C(=O)N[C@@H](CCCNC(=N)N)C(=O)N[C@@H](CCCNC(=N)N)C(=O)N[C@@H](CCC(N)=O)C(=O)N[C@@H](CCCNC(=N)N)C(=O)N[C@@H](CCCNC(=N)N)C(=O)N[C@@H](CCCNC(=N)N)C(N)=O)NC(=O)[C@H](Cc2c[nH]c3ccccc23)NC(=O)[C@H](CCCNC(=N)N)NC(=O)[C@@H](Cc2ccc3ccccc3c2)NC(=O)[C@H](Cc2c[nH]cn2)NC1=O`, the pEC50 at hMC5-R (setting [3]) was 8.54; at hMC1-R (setting [5]), 8.49. Besides, the results for the Kb on hMC3-R (setting [4]) and at hMC4-R [1] (setting [6]) were 8.97 nM and 4.61 nM, respectively.

As to `CCCC[C@H](NC(C)=O)C(=O)N[C@H]1CC(=O)NCCCC[C@@H](C(=O)N2CCC[C@H]2C(=O)N2CCC[C@H]2C(=O)N[C@@H](CCCCN)C(=O)N[C@@H](CC(=O)O)C(=O)NCCOCCOCC(=O)N[C@@H](Cc2ccc(O)cc2)C(=O)NCC(=O)N[C@@H](CCCNC(=N)N)C(=O)N[C@@H](CCCCN)C(=O)N[C@@H](CCCCN)C(=O)N[C@@H](CCCNC(=N)N)C(=O)N[C@@H](CCCNC(=N)N)C(=O)N[C@@H](CCC(N)=O)C(=O)N[C@@H](CCCNC(=N)N)C(=O)N[C@@H](CCCNC(=N)N)C(=O)N[C@@H](CCCNC(=N)N)C(N)=O)NC(=O)[C@H](Cc2c[nH]c3ccccc23)NC(=O)[C@H](CCCNC(=N)N)NC(=O)[C@@H](Cc2ccc3ccccc3c2)NC(=O)[C@H](Cc2c[nH]cn2)NC1=O`, the pEC50 is 8.79 on hMC5-R (setting [3]) and 8.44 at hMC1-R (setting [5]). Also, the Kb came out at 19.4 nM at hMC3-R (setting [4]) and 3.73 nM on hMC4-R [1] (setting [6]).

Turning to `CCCC[C@H](NC(C)=O)C(=O)N[C@H]1CC(=O)NCCCC[C@@H](C(=O)NCCC(=O)NCCC(=O)N[C@@H](Cc2ccc(O)cc2)C(=O)NCC(=O)N[C@@H](CCCNC(=N)N)C(=O)N[C@@H](CCCCN)C(=O)N[C@@H](CCCCN)C(=O)N[C@@H](CCCNC(=N)N)C(=O)N[C@@H](CCCNC(=N)N)C(=O)N[C@@H](CCC(N)=O)C(=O)N[C@@H](CCCNC(=N)N)C(=O)N[C@@H](CCCNC(=N)N)C(=O)N[C@@H](CCCNC(=N)N)C(N)=O)NC(=O)[C@H](Cc2c[nH]c3ccccc23)NC(=O)[C@H](CCCNC(=N)N)NC(=O)[C@@H](Cc2ccc3ccccc3c2)NC(=O)[C@H](Cc2c[nH]cn2)NC1=O`, the pEC50 at hMC5-R (setting [3]) is 9.08; at hMC1-R (setting [5]) it was 8.86. For the same molecule, the Kb at hMC3-R (setting [4]) turned out to be 16.2 nM; at hMC4-R [1] (setting [6]), 7.94 nM.

For the molecule `CC(=O)N[C@H]1CSSC[C@@H](C(=O)N2CCC[C@H]2C(=O)N2CCC[C@H]2C(=O)N[C@@H](CCCCN)C(=O)N[C@@H](CC(=O)O)C(=O)NCCC(=O)N[C@@H](Cc2ccc(O)cc2)C(=O)NCC(=O)N[C@@H](CCCNC(=N)N)C(=O)N[C@@H](CCCCN)C(=O)N[C@@H](CCCCN)C(=O)N[C@@H](CCCNC(=N)N)C(=O)N[C@@H](CCCNC(=N)N)C(=O)N[C@@H](CCC(N)=O)C(=O)N[C@@H](CCCNC(=N)N)C(=O)N[C@@H](CCCNC(=N)N)C(=O)N[C@@H](CCCNC(=N)N)C(N)=O)NC(=O)[C@H](C)NC(=O)[C@H](Cc2c[nH]c3ccccc23)NC(=O)[C@H](CCCNC(=N)N)NC(=O)[C@@H](Cc2ccc3ccccc3c2)NC(=O)[C@H](Cc2c[nH]cn2)NC(=O)[C@H](CCC(=O)O)NC1=O`, the values for the pEC50 on hMC5-R (setting [3]) and on hMC1-R (setting [5]) were 7.42 and 8.20, respectively. Besides, the Kb is 70 nM at hMC3-R (setting [4]) and 1.66 nM on hMC4-R [1] (setting [6]).

Take `CC(=O)N[C@H]1CSSC[C@@H](C(=O)N2CCC[C@H]2C(=O)N2CCC[C@H]2C(=O)N[C@@H](CCCCN)C(=O)N[C@@H](CC(=O)O)C(=O)NCCC(=O)N[C@@H](Cc2ccc(O)cc2)C(=O)NCC(=O)N[C@@H](CCCNC(=N)N)C(=O)N[C@@H](CCC(N)=O)C(=O)N[C@@H](CCCCN)C(=O)N[C@@H](CCCCN)C(=O)N[C@@H](CCCNC(=N)N)C(=O)N[C@@H](CCCNC(=N)N)C(=O)N[C@@H](CCCNC(=N)N)C(=O)N[C@@H](CCCNC(=N)N)C(=O)N[C@@H](CCCNC(=N)N)C(N)=O)NC(=O)[C@H](C)NC(=O)[C@H](Cc2c[nH]c3ccccc23)NC(=O)[C@H](CCCNC(=N)N)NC(=O)[C@@H](Cc2ccc3ccccc3c2)NC(=O)[C@H](Cc2c[nH]cn2)NC(=O)[C@H](CCC(=O)O)NC1=O`: the pEC50 is 7.27 at hMC5-R (setting [3]) and 7.92 at hMC1-R (setting [5]). For the same molecule, the Kb at hMC3-R (setting [4]) stood at 13.7 nM; on hMC4-R [1] (setting [6]) it was 9.38 nM.

On to `CC(=O)N[C@H]1CSSC[C@@H](C(=O)N2CCC[C@H]2C(=O)N2CCC[C@H]2C(=O)N[C@@H](CCCCN)C(=O)N[C@@H](CC(=O)O)C(=O)NCCOCCOCC(=O)N[C@@H](Cc2ccc(O)cc2)C(=O)NCC(=O)N[C@@H](CCCNC(=N)N)C(=O)N[C@@H](CCCCN)C(=O)N[C@@H](CCCCN)C(=O)N[C@@H](CCCNC(=N)N)C(=O)N[C@@H](CCCNC(=N)N)C(=O)N[C@@H](CCC(N)=O)C(=O)N[C@@H](CCCNC(=N)N)C(=O)N[C@@H](CCCNC(=N)N)C(=O)N[C@@H](CCCNC(=N)N)C(N)=O)NC(=O)[C@H](C)NC(=O)[C@H](Cc2c[nH]c3ccccc23)NC(=O)[C@H](CCCNC(=N)N)NC(=O)[C@@H](Cc2ccc3ccccc3c2)NC(=O)[C@H](Cc2c[nH]cn2)NC(=O)[C@H](CCC(=O)O)NC1=O`, for which the pEC50 was 7.15 on hMC5-R (setting [3]) and 7.92 at hMC1-R (setting [5]). Also, the values for the Kb on hMC3-R (setting [4]) and on hMC4-R [1] (setting [6]) were 30.3 nM and 1.81 nM, respectively.

For `CCCC[C@H](N)C(=O)N[C@H]1CC(=O)NCCCC[C@@H](C(=O)NCCOCCOCC(=O)NCCOCCOCC(=O)N[C@@H](Cc2ccc(O)cc2)C(=O)NCC(=O)N[C@@H](CCCNC(=N)N)C(=O)N[C@@H](CCCCN)C(=O)N[C@@H](CCCCN)C(=O)N[C@@H](CCCNC(=N)N)C(=O)N[C@@H](CCCNC(=N)N)C(=O)N[C@@H](CCC(N)=O)C(=O)N[C@@H](CCCNC(=N)N)C(=O)N[C@@H](CCCNC(=N)N)C(=O)N[C@@H](CCCNC(=N)N)C(N)=O)NC(=O)[C@H](Cc2c[nH]c3ccccc23)NC(=O)[C@H](CCCNC(=N)N)NC(=O)[C@@H](Cc2ccc3ccccc3c2)NC(=O)[C@H](Cc2c[nH]cn2)NC1=O`, the values for the Kb on hMC3-R (setting [4]) and at hMC4-R [1] (setting [6]) were 261 nM and 3.11 nM, respectively. Besides, the pKi at hMC4-R [2] is 8.22.

For the molecule `CC(=O)N[C@H]1CSSC[C@@H](C(=O)N2CCC[C@H]2C(=O)N2CCC[C@H]2C(=O)N[C@@H](CCCCN)C(=O)N[C@@H](CC(=O)O)C(N)=O)NC(=O)[C@H](C)NC(=O)[C@H](Cc2cccc3ccccc23)NC(=O)[C@H](CCCNC(=N)N)NC(=O)[C@@H](Cc2ccc3ccccc3c2)NC(=O)[C@H](Cc2c[nH]cn2)NC(=O)[C@H](CCC(=O)O)NC1=O` [Ac-c(Cys-Glu-His-D-2-Nal-Arg-1-Nal-Ala-Cys)-Pro-Pro-Lys-Asp-NH2] (Ac-CEH[d2Nal]R[1Nal]ACPPKD-NH2; disulfide 1-8), the pEC50 at hMC5-R was 6.98; on hMC1-R it was 6.57. Further, the Kb amounted to 105 nM on hMC3-R and 5.92 nM on hMC4-R [1].

As for `CC(=O)N[C@H]1CSSC[C@@H](C(=O)N2CCC[C@H]2C(=O)N2CCC[C@H]2C(=O)N[C@@H](CCCCN)C(=O)N[C@@H](CC(=O)O)C(N)=O)NC(=O)[C@H](C)NC(=O)[C@H](Cc2ccc3ccccc3c2)NC(=O)[C@H](CCCNC(=N)N)NC(=O)[C@@H](Cc2ccc3ccccc3c2)NC(=O)[C@H](Cc2c[nH]cn2)NC(=O)[C@H](CCC(=O)O)NC1=O` [Ac-c(Cys-Glu-His-D-2-Nal-Arg-2-Nal-Ala-Cys)-Pro-Pro-Lys-Asp-NH2] (Ac-CEH[d2Nal]R[2Nal]ACPPKD-NH2; disulfide 1-8), the figures for the pEC50 at hMC5-R and on hMC1-R were 7.17 and 7.47, respectively. The Kb at hMC3-R was 140 nM; on hMC4-R [1], 12.2 nM.

`CC(=O)N[C@H]1CSSC[C@@H](C(=O)N2CCC[C@H]2C(=O)N2CCC[C@H]2C(=O)N[C@@H](CCCCN)C(=O)N[C@@H](CC(=O)O)C(N)=O)NC(=O)[C@H](C)NC(=O)[C@H](Cc2csc3ccccc23)NC(=O)[C@H](CCCNC(=N)N)NC(=O)[C@@H](Cc2ccc3ccccc3c2)NC(=O)[C@H](Cc2c[nH]cn2)NC(=O)[C@H](CCC(=O)O)NC1=O` [Ac-c(Cys-Glu-His-D-2-Nal-Arg-Bal-Ala-Cys)-Pro-Pro-Lys-Asp-NH2] (Ac-CEH[d2Nal]R[Bta]ACPPKD-NH2; disulfide 1-8): the pEC50 at hMC5-R is 6.75; at hMC1-R, 6.16. In addition, the Kb on hMC3-R came out at 70.7 nM; on hMC4-R [1], 4.56 nM.

Regarding `CC(=O)N[C@H]1CSSC[C@@H](C(=O)N2CCC[C@H]2C(=O)N2CCC[C@H]2C(=O)N[C@@H](CCCCN)C(=O)N[C@@H](CC(=O)O)C(N)=O)NC(=O)[C@H](C)NC(=O)[C@H](Cc2c[nH]c3ccccc23)NC(=O)[C@H](CCCNC(=N)N)NC(=O)[C@@H](Cc2ccc3ccccc3c2)NC(=O)[C@H](Cc2c[nH]cn2)NC(=O)[C@H](CCC(=O)O)NC1=O` [Ac-c(Cys-Glu-His-D-2-Nal-Arg-Trp-Ala-Cys)-Pro-Pro-Lys-Asp-NH2] (Ac-CEH[d2Nal]RWACPPKD-NH2; disulfide 1-8), the pEC50 is 8.16 at hMC5-R (setting [3]) and 7.18 on hMC1-R (setting [5]). For the same molecule, the Kb stood at 33.4 nM on hMC3-R (setting [4]) and 0.687 nM at hMC4-R [1] (setting [6]).

As usually defined, the pEC50 is the negative decadic logarithm of the EC50, by convention in mol/L. What is called pKi is −log10 of the Ki, conventionally taken in molar units.
